# In patent US5147652A, “Autobiotics and their use in eliminating nonself cells in vivo” (priority 1990, dated 1992):
# How the values were obtained:
# [1] = test system: Candida albicans; experiment: Effect on proliferation of Candida albicans, disk on agar surface (A); assay type: cell-based
# Experimental: Stock solutions of the following test compounds were dissolved in physiological saline. However DOV was dissolved in water.
# C. albicans isolated from clinical specimens were density grown in SubbaRow's broth at 35 C. A loopful of yeast suspension was evenly spread on the surface of Muller-Hilton agar plates (7cm diameter) with a sterile cotton applicator and incubated for 12 hours. The test compounds were placed on the surface of the sensidisks (Whatmann No. 17 paper, 6mm diameter) in a volume of 5, 10, 20, and 50 μliter of stock solutions and made up a final volume of 50 μliter with saline. The plates then were placed and kept at 37 C for 24 hours (*) and 48 hours (**) when the diameters of the inhibitory rings were recorded. Photographs were also taken of plates.
# [2] = test system: Candida albicans; conditions: cited from earlier work
# [3] = test system: blood coagulation (normal plasma); experiment: Blood coagulation (ii)(b), normal plasma; assay type: biochemical, human
# Experimental: (§1) 200 microliter thromboplastin (Ortho) was mixed with 10 microliter ketoaldehyde (KA) stock solution. Then 100 microliter citrated human blood plasma was added and the clot formation time (in seconds) was measured on a Fibrionometer. The effect of the ketoaldehyde on coagulation time was evaluated by comparing the clotting time of the KA treated plasma with the untreated control. The result (d%) was read from a special chart expressing the clotting activity.
# (§2) All measurements were run in triplicates. The assay was run at 37 C (waterbath) in special tubes and all solutions were prewarmed.
# (ii) The plasminogen and KA were incubated for
# varying time before the blood plasma was added.
# (b) with normal plasma: clotting time = 11. 7 sec
# [4] = test system: blood coagulation (citrated human blood plasma); experiment: Blood coagulation (i), ketoaldehyde kept 1-2 seconds before plasma added; assay type: biochemical; conditions: for d % (clotting activity) / coagulation time / clot: 1-2 seconds contact; for d % (clotting activity): control 22; for coagulation time: control 24; for clot: control hard; for anti-coagulant effectiveness: summary of Example 9
# Experimental: as §1, §2
# (i) The plasminogen and ketoaldehyde were kept for
# 1-2 seconds before the blood plasma was added.
# [5] = test system: C. albicans; experiment: Inhibition of C. albicans, yeast mixed in agar (B); assay type: cell-based; conditions: 30 μl test, 24 hrs incubation; mean of twenty assays
# Experimental: Stock cultured C. albicans is used. The yeast isolated from clinical specimens was stock cultured (subcultured) on semisolid trypsoy agar plates. […] Thus, from the subculture(s), transfers were made every 48 hrs into SRB to keep the experimental strain available for assays. From the 24-48 hrs SRB cultures a loopful of turbid solutions was transferred and spread on either (a) trypsoy agar plates or (b) EBM agar plates which were fortified with horse and calf serum and incubated at 36 C for 24-48 hrs. […] Plate (a) was selected for growth inhibition assay(s) with ketoaldehydes.
# One milliliter of SRB culture (24-48 hrs growth) was mixed with 10 ml trypsoy agar, warmed to 38 C and rapidly poured into sterile Petri dishes (7cm), spread evenly and allowed to solidify. The selected test compounds (in 30 μl total volume, as above) were placed in sensidisks (6mm dia, Whatman #17) on the infected agar surface. The plates were incubated for 24 hrs at 37 C. The extent of inhibition, clear zones around the sensi disks, were measured and recorded. In some cases contact photorecords were also made with the plates. (The dark zones on the photos are the inhibition (no growth) areas of C. albicans.
# These assays were aimed at finding the variations of inhibition due to (i) the variable amount of yeast in (ii) a three dimensional area of the plates. Each result is the statistical mean of twenty assays on different batches of C. albicans.
# [6] = test system: Penicillum notatum; experiment: Inhibition of proliferation of molds, disk assay; assay type: cell-based; conditions: 8 days; for persistence of inhibition rings: highest concentration; for spore formation / mycelium development in second ring: penicillin plate
# [7] = test system: Aspergillus niger; experiment: Inhibition of proliferation of molds, disk assay; assay type: cell-based; set-up: unit not given here; conditions: 40 hrs
# Experimental: (§3) (1) Stock solutions in 26% 2 popanediol:
# (§4) (3) Assay: The microorganisms were grown in Saburand's dextrose agar (Scott) at 35 C for stock cultures. For assay the spores were plated on Mueller-Hilton agar plates (7cm dia). The test compounds were applied to the plates on sensi disks (6 mm dia, Whatmann #17 paper) in volumes of 10, 20, 30, 40 microliter made up to 40 plating volume of microliter with the solvent. The plates were incubated at room temperature and in the dark for 40 hrs. The diameter of the inhibition ring around the sensi disks were measured.
# [8] = test system: Penicillum notatum; experiment: Inhibition of proliferation of molds, disk assay; assay type: cell-based; set-up: unit not given here; conditions: 40 hrs
# Experimental: as §3, §4
# [9] = test system: implantation of fertilized mouse eggs; experiment: Preventing pregnancy in mice; assay type: in vivo
# Experimental: Six 5 month old female CD-1 mice were injected intraperitoneally with N-1 hydroxy acetonyl maleimide for 12 days (50 microgram/ 20 g mice in saline: max volume 0.6 ml/A/D). Another group of the same mice were injected intraperitoneally with saline for 12 days (0.4ml). this second group of mice served as the control.
# Two experienced males were introduced to each group of females and kept together for 8 days during which time the females received their daily injection. Copulation plugs were seen on each female by the 12th day of injection, and signs of pregnancy were seen on the control females on the 15-16th day of the experiment. The females delivered on 20-23 (control) and 24-27th (treated) day respectively (Table 3).
# The experiment was repeated with the same females two months later, except that females of the control group were assigned to the test group, while females of the test group were reassigned to the control group. […] The control group delivered 102 pups (T/C =100%).
# [10] = test system: skin graft rejection; experiment: Combatting rejection mechanism: orthotopic skin transplants between Swiss albino and C3HStCrl mice; assay type: in vivo
# Experimental: The experiments described here were performed on random-bred Swiss albino mice (white, females, average body weight 26±3 g; Charles River CD-1-strain) and inbred C3HStCrl mice (cinnamon gray, females, average body weight […]; Charles River pedigreed breeders from L.C. Strong Foundation) and othotopic skin transplants were made in both ways, that is, white to gray and gray to white.
# Standard transplantation technique (Billingham, R.E. and W.K. Silvers in Transplantation of Tissues and Cells, The Wistar Institute Press, Philadelphia, p. 8, (1961)) was utilized: From nembutal anesthetized animals 4-6 "pinch" -grafts (full thickness, 3-4 mm in diameter) of the close clipped and sterilized skin were collected from the thorax and immediately transplanted. The grafts were positioned in the "beds" (in place of the pinch-graft) and were held in position by tulle gras (vaseline-impregnated gauze) and by plaster-of-Paris impregnated bandage around the thorax.
# The bandages were removed on the 6-9th day after the transplantation and the future development of the grafts was followed by macroscopical observations.
# a. Animals were treated for 10 days with the composition before grafts were exchanged and treatment was discontinued on the day of transplantation.
# b. Animals were not treated before the grafts were exchanged but the treatment started on the day of transplantation and continued for 10 days.
# c. Animals were treated for 10 days with the drug before the grafts were exchanged and the treatment schedule was continued for 25 days after the transplantation.
# +Treatment: daily injection with 3.744 mg/kg methylglyoxalmalcimide in 1.
# [11] = 10x diluted, incubation time 10 seconds
# [12] = 20x diluted, incubation time 30 seconds
# [13] = ip, 50 microgram/20 g mice, 12 females
molecule,measurement,setting,value
"Nc1nc(=O)[nH]cc1F [5FC, 5 fluorocytosine, reference compound]",inhibition diameters,"[1]; 5 μliter, 24 hours (*)",33 mm
same,inhibition diameters,"[1]; 10 μliter, 24 hours (*)",45 mm
same,inhibition diameters,"[1]; 20 μliter, 24 hours (*)",50 mm
same,inhibition diameters,"[1]; 50 μliter, 24 hours (*)",55 mm
same,duration of action against Candida,[2],shortlived action
same,toxicity to the host,[2],low toxicity to the host
"C[C@@H]1[C@H](O)[C@@H](C)/C=C/C=C/C=C/C=C/C=C/C=C/C=C/[C@H](O[C@@H]2O[C@H](C)[C@@H](O)[C@H](N)[C@@H]2O)C[C@@H]2O[C@](O)(C[C@@H](O)C[C@@H](O)[C@H](O)CC[C@@H](O)C[C@@H](O)CC(=O)O[C@H]1C)C[C@H](O)[C@H]2C(=O)O [AMP-B, amphotericin-B, reference compound]",inhibition diameters,"[1]; 20 μliter, 24 hours (*)",2 mm
same,inhibition diameters,"[1]; 50 μliter, 24 hours (*)",5 mm
"CC(=O)CC(=O)C=O [AcMG, 3-acetylmethylglyoxal]",clotting time,[3]; incubation time 120 seconds,13.9 s
same,d%,[3]; incubation time 120 seconds,78%
same,inhibition diameters,"[1]; 10 μliter, 24 hours (*)",18 mm
same,inhibition diameters,"[1]; 10 μliter, 48 hours (**)",11 mm
same,inhibition diameters,"[1]; 20 μliter, 24 hours (*)",31 mm
same,inhibition diameters,"[1]; 20 μliter, 48 hours (**)",24 mm
same,inhibition diameters,"[1]; 50 μliter, 24 hours (*)",34 mm
same,inhibition diameters,"[1]; 50 μliter, 48 hours (**)",30 mm
same,d % (clotting activity),[4],28%
same,coagulation time,[4],21.5 s
same,clot,[4],hard
same,inhibition diameters,[5],25.3 mm
"O=CC(=O)CCl [CMG, chloromethylglyoxal]",clotting time,[3]; [11],13.5 s
same,d%,[3]; [11],37%
same,clotting time,[3]; incubation time 15 seconds,19.4 s
same,d%,[3]; incubation time 15 seconds,33%
same,clotting time,[3]; incubation time 100 seconds,> 178.0 s
same,persistence of inhibition rings,[6],remained unchanged
same,spore formation / mycelium development in second ring,[6],spore formation in this area was inhibited while mycelium development was not
same,inhibition diameters,"[1]; 10 μliter, 24 hours (*)",7 mm
same,inhibition diameters,"[1]; 20 μliter, 24 hours (*)",21 mm
same,inhibition diameters,"[1]; 20 μliter, 48 hours (**)",10 mm
same,inhibition diameters,"[1]; 50 μliter, 24 hours (*)",33 mm
same,inhibition diameters,"[1]; 50 μliter, 48 hours (**)",31 mm
same,d % (clotting activity),[4],infinite
same,coagulation time,[4],> 200 s
same,clot,[4],no
same,anti-coagulant effectiveness,[4],most effective anti-coagulants
same,diameter of inhibition ring,[7]; 10 microliter,8
same,diameter of inhibition ring,[7]; 20 microliter,11
same,diameter of inhibition ring,[7]; 30 microliter,17
same,diameter of inhibition ring,[7]; 40 microliter,22
same,diameter of inhibition ring,[8]; 10 microliter,8
same,diameter of inhibition ring,[8]; 20 microliter,10
same,diameter of inhibition ring,[8]; 30 microliter,12
same,diameter of inhibition ring,[8]; 40 microliter,14
same,inhibition diameters,[5],26.6 mm
"O=CC(=O)C(Cl)Cl [DCMG, 3,3-dichloromethylglyoxal]",clotting time,[3]; [11],12.9 s
same,clotting time,[3]; [12],20.0 s
same,d%,[3]; [12],14.7%
same,clotting time,[3]; incubation time 15 seconds,> 170.0 s
same,persistence of inhibition rings,[6],remained unchanged
same,spore formation / mycelium development in second ring,[6],spore formation in this area was inhibited while mycelium development was not
same,inhibition diameters,"[1]; 10 μliter, 24 hours (*)",8 mm
same,inhibition diameters,"[1]; 20 μliter, 24 hours (*)",20 mm
same,inhibition diameters,"[1]; 20 μliter, 48 hours (**)",17 mm
same,inhibition diameters,"[1]; 50 μliter, 24 hours (*)",32 mm
same,inhibition diameters,"[1]; 50 μliter, 48 hours (**)",29 mm
same,d % (clotting activity),[4],infinite
same,coagulation time,[4],> 200 s
same,clot,[4],no
same,anti-coagulant effectiveness,[4],most effective anti-coagulants
same,diameter of inhibition ring,[7]; 10 microliter,10
same,diameter of inhibition ring,[7]; 20 microliter,12
same,diameter of inhibition ring,[7]; 30 microliter,14
same,diameter of inhibition ring,[7]; 40 microliter,15
same,diameter of inhibition ring,[8]; 10 microliter,8
same,diameter of inhibition ring,[8]; 20 microliter,10
same,diameter of inhibition ring,[8]; 30 microliter,13
same,diameter of inhibition ring,[8]; 40 microliter,16
same,inhibition diameters,[5],23.0 mm
"CC(=O)CC(=O)C(=O)O [DOV, 2,4-dioxovaleric acid, reference compound]","inhibition diameters, in words","[1]; 5-50 μliter, 24 hours (*)",negligible
"CCOC(C)C(=O)C=O (centres unmarked) [KE, kethoxal, reference compound]",inhibition diameters,"[1]; 10 μliter, 24 hours (*)",7 mm
same,inhibition diameters,"[1]; 20 μliter, 24 hours (*)",17 mm
same,inhibition diameters,"[1]; 20 μliter, 48 hours (**)",16 mm
same,inhibition diameters,"[1]; 50 μliter, 24 hours (*)",25 mm
same,inhibition diameters,"[1]; 50 μliter, 48 hours (**)",24 mm
"O=C1C=CC(=O)N1 [MALI, maleimide, reference compound]",inhibition diameters,"[1]; 5 μliter, 24 hours (*)",13 mm
same,inhibition diameters,"[1]; 10 μliter, 24 hours (*)",21 mm
same,inhibition diameters,"[1]; 10 μliter, 48 hours (**)",17 mm
same,inhibition diameters,"[1]; 20 μliter, 24 hours (*)",29 mm
same,inhibition diameters,"[1]; 20 μliter, 48 hours (**)",25 mm
same,inhibition diameters,"[1]; 50 μliter, 24 hours (*)",30 mm
same,inhibition diameters,"[1]; 50 μliter, 48 hours (**)",30 mm
CC(=O)C(O)N1C(=O)C=CC1=O (centres unmarked) [MGMALI],inhibition diameters,"[1]; 10 μliter, 24 hours (*)",8 mm
same,inhibition diameters,"[1]; 20 μliter, 24 hours (*)",18 mm
same,inhibition diameters,"[1]; 20 μliter, 48 hours (**)",17 mm
same,inhibition diameters,"[1]; 50 μliter, 24 hours (*)",22 mm
same,inhibition diameters,"[1]; 50 μliter, 48 hours (**)",22 mm
same,I %,"[9]; ip, 50 microgram/20 g mice",89.7%
same,T/C %,"[9]; ip, 50 microgram/20 g mice",10.3%
same,delivered (pups),[9]; [13],11
same,females that delivered,[9]; [13],2 female
same,inhibition of delivery,"[9]; second experiment, groups exchanged, two months later",83.3%
same,day of delivery,"[9]; treated females, control 20-23",24 to 27 days
"O=CC(=O)Cc1ccccc1 [PMG, 3-Phenylmethylglyoxal]",clotting time,[3]; incubation time 120 seconds,21.2 s
same,d%,[3]; incubation time 120 seconds,28%
same,d % (clotting activity),[4],10.5%
same,coagulation time,[4],36 s
same,clot,[4],hard
methylglyoxalmalcimide,rejection,"[10]; (a) pretreatment 10 days, printed g to 2, 31-40 days, cumulative",100%
same,rejection,"[10]; (a) pretreatment 10 days, w to g, 26-30 days, cumulative",30%
same,rejection,"[10]; (b) post graft treatment 10 days, printed g to 2, 31-40 days, cumulative",10%
same,rejection,"[10]; (b) post graft treatment 10 days, w to g, 26-31 days, cumulative",10%
same,rejection,"[10]; (c) pretreatment 10 days and post graft 25 days, g to w, 31-40 days, cumulative",10%
same,rejection,"[10]; (c) pretreatment 10 days and post graft 25 days, w to g, 26-30 days",No rejection
